This assay addresses human P2X7 (Homo sapiens (Human), UniProt Q99572). The assay is described as follows: Human P2X7 functional assay (Ca2+ influx, Fluo-4, FDSS). The class given is cell-based. The note with it: antagonistic activity with respect to the human P2X7 receptor; BzATP final concentration 80 microM. The procedure:
The ability of the 5,6,7,8-tetrahydroquinoline and 6,7-dihydro-5H-cyclopenta[b]pyridine derivatives of the formula (I) to inhibit the P2X7 channel was measured by Ca^2+ influx assay and electrophysiology assay described below.
Human P2X7 Functional Assay
The functional activity of compounds was determined by measuring changes in intracellular calcium concentration using a Ca^2+-sensitive fluorescent dye, Fluo-4 (Molecular Probes). The changes in fluorescent signal were monitored by the cell imaging technology by Hamamatsu Photonics's Functional Drug Screening System (FDSS). Increases in intracellular Ca^2+ concentration were readily detected upon activation with BzATP.
HEK293 cells stably expressing human P2X7 (GenBank accession number BC011913) carrying a C-terminal FLAG tag were grown in T225 flasks, in a 5% CO2 humidified incubator to about 80% confluence. Media composition consisted of Dulbecco's Modified Eagle Medium (high glucose), 10% fetal bovine serum ([…]), 100 units/[…] Penicillin, 100 microg/mL Streptomycin and 250 microg/mL Geneticine.
1. Plate-out HEK293-human P2X7 cells (40 microL medium containing 10,000 cells per well) into poly-D-lysine coated 384-well plates (Corning) at 24 h prior to assay.
2. Incubate at 37° C. in 5% CO2.
3. Incubate the plate at 37° C. in 5% CO2 for 1 h.
5. Test compounds were prepared at 100× the test concentration in DMSO by serial dilution with Biomek-FX liquid handling instrument. 33× diluted compound solutions in assay buffer were prepared in intermediate compound plate with Biomek-NX liquid handling instrument. A further 3× dilution occurred in below steps 6 and 7.
6. Add 20 microL of 33× diluted compound solutions into each well and leave the plate for 10 min under the dark at room temperature.
7. Measure activity by FDSS as follows: • Set the assay plate on the stacker of FDSS. • Start the detection of fluorescence intensity at 540 nm by 480 nm exicitation. • After 30 seconds, add 20 microL of assay buffer containing 240 microM BzATP (final concentration 80 microM).
IC50 values for compounds of the present invention were determined from 7-point dose-response studies. Curves were generated using the average of duplicate wells for each data point. Finally, the IC50 values are calculated with the best-fit dose curve determined by XLfit (ID Business Solutions Ltd.).

From patent US11077100B2, “Tetrahydroquinoline derivatives as P2X7 receptor antagonists” (RaQualia Pharma Inc., priority 2017, dated 2021) come the findings set out here.

Structures are written as SMILES.

Chain of human P2X7 (Q99572 whole entry): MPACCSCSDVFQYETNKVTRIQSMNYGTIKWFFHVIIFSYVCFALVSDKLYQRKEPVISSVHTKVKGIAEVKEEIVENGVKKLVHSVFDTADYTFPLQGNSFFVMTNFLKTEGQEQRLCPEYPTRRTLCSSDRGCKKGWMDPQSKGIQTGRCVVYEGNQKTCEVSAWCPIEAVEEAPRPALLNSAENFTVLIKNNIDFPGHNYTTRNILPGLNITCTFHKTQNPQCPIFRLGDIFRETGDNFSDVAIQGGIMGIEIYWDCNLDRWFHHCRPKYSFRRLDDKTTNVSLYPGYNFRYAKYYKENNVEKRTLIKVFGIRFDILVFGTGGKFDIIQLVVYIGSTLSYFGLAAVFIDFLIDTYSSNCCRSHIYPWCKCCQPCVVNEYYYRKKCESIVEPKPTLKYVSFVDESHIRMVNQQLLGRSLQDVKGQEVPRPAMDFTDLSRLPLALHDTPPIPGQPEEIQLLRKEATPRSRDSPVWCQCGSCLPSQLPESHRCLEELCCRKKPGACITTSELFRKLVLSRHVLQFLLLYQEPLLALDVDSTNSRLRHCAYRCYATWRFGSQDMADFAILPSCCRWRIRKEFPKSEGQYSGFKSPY

`Cc1ncsc1C(CNC(=O)[C@]1(F)CC[C@H](O)c2ncccc21)N1CCC(F)(F)CC1` (stereo partly drawn) [Example 236, (5S,8S)-N-(2-(4,4-difluoropiperidin-1-yl)-2-(4-methylthiazol-5-yl)ethyl)-5-fluoro-8-hydroxy-5,6,7,8-tetrahydroquinoline-5-carboxamide] showed an IC50 of 1000 to 3000 nM.

In turn, `O=C(NCc1c(Cl)ccc(Cl)c1Cl)[C@@]1(F)CC[C@@H](O)c2ncccc21` [Example 164, (5R,8R)-5-fluoro-8-hydroxy-N-(2,3,6-trichlorobenzyl)-5,6,7,8-tetrahydroquinoline-5-carboxamide] registered a 50% inhibitory concentration (IC50) of 101 to 300 nM.

On to `O=C1CCC(C(=O)NCc2c(Cl)cc(Cl)cc2CO)c2cccnc21` (stereo not shown) [Example 4, N-(2,4-dichloro-6-(hydroxy-methyl)benzyl)-8-oxo-5,6,7,8-tetrahydroquinoline-5-carboxamide], for which the concentration for half-maximal inhibition (IC50) was under 50 nM.

On to `O=C(NCc1ccc(F)cc1C(F)(F)F)[C@@]1(F)CC[C@@H](O)c2ncccc21` [Example 143, (5R,8R)-5-fluoro-N-(4-fluoro-2-(trifluoromethyl)benzyl)-8-hydroxy-5,6,7,8-tetrahydroquinoline-5-carboxamide], for which the IC50 lay in the range of 301 to 1000 nM.

Turning to `COc1ccc(CNC(=O)[C@]2(F)CC[C@H](O)c3ncccc32)c(C(F)(F)F)c1` [Example 211, (5S,8S)-5-fluoro-8-hydroxy-N-(4-methoxy-2-(trifluoromethyl)benzyl)-5,6,7,8-tetrahydroquinoline-5-carboxamide], the 50% inhibitory concentration (IC50) lay in the range of 101 to 300 nM.

Compound `O=C(NCc1cccc(Cl)c1Cl)[C@@]1(F)CC[C@H](O)c2ncccc21` [Example 120, (5R,8S)-N-(2,3-dichlorobenzyl)-5-fluoro-8-hydroxy-5,6,7,8-tetrahydroquinoline-5-carboxamide] had an IC50 of 1000 to 3000 nM.

Compound `Cc1cnc2c(c1)[C@](F)(C(=O)NCc1ccc(F)cc1Cl)CC[C@@H]2O` [Example 244, (5S,8S)-N-(2-chloro-4-fluorobenzyl)-5-fluoro-8-hydroxy-3-methyl-5,6,7,8-tetrahydroquinoline-5-carboxamide] had an IC50 of 1000 to 3000 nM.

`O=C(NCC1(c2ccc(F)cc2)CC1)[C@]1(F)CC[C@H](O)c2ncccc21` [Example 220, (5S,8S)-5-fluoro-N-((1-(4-fluorophenyl)cyclopropyl)methyl)-8-hydroxy-5,6,7,8-tetrahydroquinoline-5-carboxamide]: the half-maximal inhibitory concentration (IC50) lay in the range of 301 to 1000 nM.

As for `COc1cccc(CNC(=O)[C@]2(F)CC[C@H](O)c3ncccc32)c1Cl` [Example 224, (5S,8S)-N-(2-chloro-3-methoxybenzyl)-5-fluoro-8-hydroxy-5,6,7,8-tetrahydroquinoline-5-carboxamide], the IC50 lay in the range of 301 to 1000 nM.

As to `Cc1cc(Cl)cc(Cl)c1CNC(=O)C1(O)CCC(=O)c2ncccc21` (stereo not shown) [Example 15, N-(2,4-dichloro-6-methylbenzyl)-5-hydroxy-8-oxo-5,6,7,8-tetrahydro-quinoline-5-carboxamide], the concentration for half-maximal inhibition (IC50) fell in the range of 301 to 1000 nM.

The compound `O=C(NCc1cc(F)c(F)cc1Cl)[C@]1(F)CC[C@@H](O)c2ncccc21` [Example 123, (5S,8R)-N-(2-chloro-4,5-difluorobenzyl)-5-fluoro-8-hydroxy-5,6,7,8,- tetrahydroqunioline-5-carboxamide] came in with a concentration for half-maximal inhibition (IC50) of 101 to 300 nM.

For the compound `O=C(NCc1c(Cl)cc(C(F)(F)F)cc1Cl)[C@@]1(F)CC[C@@H](O)c2ncccc21` [Example 147, (5R,8R)-N-(2,6-dichloro-4-(trifluoromethyl)benzyl)-5-fluoro-8-hydroxy-5,6,7,8-tetrahydroquinoline-5-carboxamide], the 50% inhibitory concentration (IC50) is under 50 nM.

Compound `O=C(NCc1c(F)cc(Cl)cc1Cl)[C@@]1(F)CC[C@@H](O)c2ncccc21` [Example 151, (5R,8R)-N-(2,4-dichloro-6-fluorobenzyl)-5-fluoro-8-hydroxy-5,6,7,8-tetrahydroquinoline-5-carboxamide] yielded an IC50 of under 50 nM.

For `O=C(NCc1ccc(F)cc1F)[C@@]1(F)CC[C@@H](O)c2ncccc21` [Example 140, (5R,8R)-N-(2,4-difluorobenzyl)-5-fluoro-8-hydroxy-5,6,7,8-tetrahydroquinoline-5-carboxamide], the 50% inhibitory concentration (IC50) was 301 to 1000 nM.

In the case of `O=C1CCC(C(=O)NCC2CCCCCC2)c2cccnc21` (stereo not shown) [Example 5, N-(cycloheptylmethyl)-8-oxo-5,6,7,8-tetrahydro-quinoline-5-carboxamide], the concentration for half-maximal inhibition (IC50) was in the range of 1000 to 3000 nM.

`O=C(NCc1ccc(F)cc1C(F)(F)F)[C@H]1CC[C@H](O)c2ncccc21` [Example 75, (5S,8S)-N-(4-fluoro-2-(tri-fluoromethyl)benzyl)-8-hydroxy-5,6,7,8-tetra-hydroquinoline-5-carbox-amide] gave an IC50 of 1000 to 3000 nM.

Compound `O=C(NCc1nc(-c2ccc(Cl)cc2)cs1)[C@]1(F)CC[C@H](O)c2ncccc21` [Example 213, (5S,8S)-N-((4-(4-chlorophenyl)thiazol-2-yl)methyl)-5-fluoro-8-hydroxy-5,6,7,8-tetrahydroquinoline-5-carboxamide] came in with an IC50 of 101 to 300 nM.

As to `O=C1CC(C(=O)NCc2cccc(C(F)(F)F)c2Cl)c2cccnc21` (stereo not shown) [Example 17, N-(2-chloro-3-(trifluoromethyl)benzyl)-7-oxo-6,7-dihydro-5H-cyclopenta[b] pyridine-5-carboxamide], the IC50 lay in the range of 50 to 100 nM.

`O=C(NCc1c(Cl)cc(C(F)(F)F)cc1Cl)[C@@]1(F)CC[C@H](O)c2ncccc21` [Example 112, (5R,8S)-N-(2,6-dichloro-4-(trifluoromethyl)benzyl)-5-fluoro-8-hydroxy-5,6,7,8-tetrahydroquinoline-5-carboxamide] registered an IC50 of 101 to 300 nM.

Consider `Cc1cnc2c(c1)[C@](F)(C(=O)NCc1ccc(Cl)cc1Cl)CC[C@@]2(O)CO` [Example 325, (5S,8S)-N-(2,4-dichlorobenzyl)-5-fluoro-8-hydroxy-8-(hydroxymethyl)-3-methyl-5,6,7,8-tetrahydroquinoline-5-carboxamide], for which the 50% inhibitory concentration (IC50) lay within 1000 to 3000 nM.

In turn, `O=C(NCc1ccccc1CN1CCOCC1)[C@]1(F)CC[C@H](O)c2ncccc21` [Example 214, (5S,8S)-5-fluoro-8-hydroxy-N-(2-(morpholinomethyl)benzyl)-5,6,7,8-tetrahydroquinoline-5-carboxamide] had a half-maximal inhibitory concentration (IC50) of 101 to 300 nM.

As to `O=C(NCc1c(F)cc(Cl)cc1Cl)[C@@H]1CC[C@@H](O)c2ncccc21` [Example 91, (5R,8R)-N-(2,4-dichloro-6-fluorobenzyl)-8-hy-droxy-5,6,7,8-tetrahydro-quinoline-5-carboxamide], the IC50 is 101 to 300 nM.

Compound `O=C(NCc1ccc(Cl)cc1F)[C@@H]1CC[C@@H](O)c2ncccc21` [Example 95, (5R,8R)-N-(4-chloro-2-fluorobenzyl)-8-hydroxy-5,6,7,8-tetrahydroquinoline-5-carboxamide] registered a 50% inhibitory concentration (IC50) of 1000 to 3000 nM.

`O=C(N[C@H]1CCCc2ccccc21)[C@]1(F)CC[C@H](O)c2ncccc21` [Example 218, (5S,8S)-5-fluoro-8-hydroxy-N-((S)-1,2,3,4-tetrahydronaphthalen-1-yl)-5,6,7,8-tetrahydroquinoline-5-carboxamide] came in with a 50% inhibitory concentration (IC50) of 301 to 1000 nM.

Regarding `O=C(NCc1ccc(F)c(Cl)c1)[C@]1(F)CC[C@H](O)c2ncccc21` [Example 188, (5S,8S)-N-(3-chloro-4-fluorobenzyl)-5-fluoro-8-hydroxy-5,6,7,8-tetrahydroquinoline-5-carboxamide], the 50% inhibitory concentration (IC50) is under 50 nM.
